Data published in patent publication US9969752B2, “Inhibitors of HIF prolyl hydroxylase” (MERCK SHARP & DOHME CORP., priority 2014, dated 2018).

biological target: T1, Human HIF-PHD2 (Homo sapiens, UniProt Q9GZT9); test: Inhibition of the hydroxylation of a HIF peptide by PHD2 (time resolved fluorescence, 384-well); type: biochemical; details: FLAG-tagged full length PHD2; 0.2 μM 2-oxoglutarate, 0.5 μM HIF-1α peptide; 45 minutes at room temperature; read-out: Human HIF-PHD2 IC50
T1 construct: FLAG-tagged full length PHD2 expressed in and purified from baculovirus-infected Sf9 cells; FLAG; made in house; host or cells: baculovirus-infected Sf9 cells
Procedure: To each well of a 384-well plate, 1 μL of test compounds in DMSO (final concentration ranging from 0.3 nM to 10 uM) were added into 20 μl of assay buffer (50 mM Tris pH 7.4/0.01% Tween-20/0.1 mg/ml bovine serum albumin/10 μM ferrous sulfate/1 mM sodium ascorbate/20 μg/ml catalase) containing 0.15 μg/ml FLAG-tagged full length PHD2 expressed in and purified from baculovirus-infected Sf9 cells. After a 5 min preincubation at room temperature, the enzymatic reactions were initiated by the addition of 4 μL of substrates {final concentrations of 0.2 μM 2-oxoglutarate and 0.5 μM HIF-1α peptide biotinyl-[…] […] After incubation for 45 minutes at room temperature, the reactions were terminated by the addition of a 25 μL quench/detection mix to a final concentration of 1 mM ortho-phenanthroline, 0.1 mM EDTA, 0.5 nM anti-(His)6 LANCE reagent (Perkin-Elmer Life Sciences), 100 nM AF647-labeled streptavidin (Invitrogen), and 2 μg/ml (His)6-VHL complex {S. Tan Protein Expr. Purif.

T1 sequence (Q9GZT9 whole entry): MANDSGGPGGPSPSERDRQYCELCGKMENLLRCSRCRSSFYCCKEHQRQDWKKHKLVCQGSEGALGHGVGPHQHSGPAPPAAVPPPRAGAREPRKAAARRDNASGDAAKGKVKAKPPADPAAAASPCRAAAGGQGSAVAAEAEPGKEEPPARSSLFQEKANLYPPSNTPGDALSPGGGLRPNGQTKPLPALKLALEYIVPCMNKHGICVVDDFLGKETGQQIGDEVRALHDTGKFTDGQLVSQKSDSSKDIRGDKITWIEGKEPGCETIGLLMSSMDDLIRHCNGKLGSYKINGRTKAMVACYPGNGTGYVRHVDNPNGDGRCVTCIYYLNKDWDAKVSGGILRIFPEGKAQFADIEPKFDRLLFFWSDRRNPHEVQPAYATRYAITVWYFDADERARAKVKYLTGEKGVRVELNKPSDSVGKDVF

Row | Compound | IC50
1 | O=C(O)CNC(=O)c1c(O)c2cccc3c2n(c1=O)C(c1ccc(C(F)(F)F)cc1)CO3 (racemic) [Example 1, 2-(7-Hydroxy-5-oxo-3-(4-(trifluoromethyl)phenyl)-3,5-dihydro-2H-[1,4]oxazino[2,3,4-ij]quinoline-6-carboxamido)acetic acid] | 15.8 nM
2 | O=C(O)CNC(=O)c1c(O)c2cccc3c2n(c1=O)CC(c1cncs1)C3 (racemic) [Example 50, 2-(1-Hydroxy-3-oxo-6-(thiazol-5-yl)-3,5,6,7-tetrahydropyrido[3,2,1-ij]quinoline-2-carboxamido)acetic acid] | 7.3 nM
3 | O=C(O)CNC(=O)c1c(O)c2cccc3c2n(c1=O)C(c1ccccc1)C3 (racemic) [Example 129, 2-(6-Hydroxy-4-oxo-2-phenyl-2,4-dihydro-1H-pyrrolo[3,2,1-ij]quinoline-5-carboxamido)acetic acid] | 74 nM
4 | O=C(O)CNC(=O)c1c(O)c2cccc3c2n(c1=O)C(Cc1ccc(Cl)cc1)CC3 (racemic) [Example 131, 2-(5-(4-Chlorobenzyl)-1-hydroxy-3-oxo-3,5,6,7-tetrahydropyrido[3,2,1-ij]quinoline-2-carboxamido)acetic acid] | 15 nM
5 | O=C(O)CNC(=O)c1c(O)c2cccc3c2n(c1=O)C(c1ccc(Br)cc1)CO3 (racemic) [Example 133, 2-(3-(4-Bromophenyl)-7-hydroxy-5-oxo-3,5-dihydro-2H-[1,4]oxazino[2,3,4-ij]quinoline-6-carboxamido)acetic acid] | 17 nM
6 | O=C(O)CNC(=O)c1c(O)c2cccc3c2n(c1=O)C(c1ccc(C(F)(F)F)cc1)CO3 (single isomer, unassigned) [Example 1a, 2-(7-Hydroxy-5-oxo-3-(4-(trifluoromethyl)phenyl)-3,5-dihydro-2H-[1,4]oxazino[2,3,4-ij]quinoline-6-carboxamido)acetic acid] | 33.7 nM
7 | CS(=O)(=O)c1cc2c3c(c1)c(O)c(C(=O)NCC(=O)O)c(=O)n3CC(c1ccc(C(F)(F)F)cc1)O2 (single isomer, unassigned) [Example 17, 2-(7-Hydroxy-9-(methylsulfonyl)-5-oxo-2-(4-(trifluoromethyl)phenyl)-3,5-dihydro-2H-[1,4]oxazino[2,3,4-ij]quinoline-6-carboxamido)acetic acid] | 0.9 nM
8 | CS(=O)(=O)c1cc2c3c(c1)c(O)c(C(=O)NCC(=O)O)c(=O)n3CC(c1ccc(C(F)(F)F)cc1)O2 (single isomer, unassigned) [Example 18, 2-(7-Hydroxy-9-(methylsulfonyl)-5-oxo-2-(4-(trifluoromethyl)phenyl)-3,5-dihydro-2H-[1,4]oxazino[2,3,4-ij]quinoline-6-carboxamido)acetic acid] | 1.3 nM
9 | N#Cc1ccc2c(O)c(C(=O)NCC(=O)O)c(=O)n3c2c1OC(c1ccc(C(F)(F)F)cc1)C3 (single isomer, unassigned) [Example 20, 2-(10-Cyano-7-hydroxy-5-oxo-2-(4-(trifluoromethyl)phenyl)-3,5-dihydro-2H-[1,4]oxazino[2,3,4-ij]quinoline-6-carboxamido)acetic acid] | 0.5 nM
10 | CS(=O)(=O)c1ccc2c(O)c(C(=O)NCC(=O)O)c(=O)n3c2c1OC(c1ccc(C(F)(F)F)cc1)C3 (single isomer, unassigned) [Example 23, 2-(7-Hydroxy-10-(methylsulfonyl)-5-oxo-2-(4-(trifluoromethyl)phenyl)-3,5-dihydro-2H-[1,4]oxazino[2,3,4-ij]quinoline-6-carboxamido)acetic acid] | 1.6 nM
11 | O=C(O)CNC(=O)c1c(O)c2cccc3c2n(c1=O)CC(c1cncs1)C3 (single isomer, unassigned) [Example 50b, 2-(1-Hydroxy-3-oxo-6-(thiazol-5-yl)-3,5,6,7-tetrahydropyrido[3,2,1-ij]quinoline-2-carboxamido)acetic acid] | 8.3 nM
12 | O=C(O)CNC(=O)c1c(O)c2c(Cl)ccc3c2n(c1=O)CC(c1ccc(C(F)(F)F)cc1)O3 (single isomer, unassigned) [Example 70, 2-(8-Chloro-7-hydroxy-5-oxo-2-(4-(trifluoromethyl)phenyl)-3,5-dihydro-2H-[1,4]oxazino[2,3,4-ij]quinoline-6-carboxamido)acetic acid] | 1.8 nM

Further lines, results first:

Row | IC50 | Compound
13 | 13.1 nM | O=C(O)CNC(=O)c1c(O)c2cccc3c2n(c1=O)C(c1ccc(C(F)(F)F)cc1)CO3 (single isomer, unassigned) [Example 1b, 2-(7-Hydroxy-5-oxo-3-(4-(trifluoromethyl)phenyl)-3,5-dihydro-2H-[1,4]oxazino[2,3,4-ij]quinoline-6-carboxamido)acetic acid]
14 | 0.6 nM | N#Cc1ccc2c(O)c(C(=O)NCC(=O)O)c(=O)n3c2c1OC(c1ccc(C(F)(F)F)cc1)C3 (single isomer, unassigned) [Example 21, 2-(10-Cyano-7-hydroxy-5-oxo-2-(4-(trifluoromethyl)phenyl)-3,5-dihydro-2H-[1,4]oxazino[2,3,4-ij]quinoline-6-carboxamido)acetic acid]
15 | 1.3 nM | CS(=O)(=O)c1ccc2c(O)c(C(=O)NCC(=O)O)c(=O)n3c2c1OC(c1ccc(C(F)(F)F)cc1)C3 (single isomer, unassigned) [Example 24, 2-(7-Hydroxy-10-(methylsulfonyl)-5-oxo-2-(4-(trifluoromethyl)phenyl)-3,5-dihydro-2H-[1,4]oxazino[2,3,4-ij]quinoline-6-carboxamido)acetic acid]
16 | 6.7 nM | O=C(O)CNC(=O)c1c(O)c2cccc3c2n(c1=O)CC(c1cncs1)C3 (single isomer, unassigned) [Example 50a, 2-(1-Hydroxy-3-oxo-6-(thiazol-5-yl)-3,5,6,7-tetrahydropyrido[3,2,1-ij]quinoline-2-carboxamido)acetic acid]
17 | 4.9 nM | O=C(O)CNC(=O)c1c(O)c2c(F)ccc3c2n(c1=O)CC(c1ccc(C(F)(F)F)cc1)O3 (single isomer, unassigned) [Example 68, 2-(8-Fluoro-7-hydroxy-5-oxo-2-(4-(trifluoromethyl)phenyl)-3,5-dihydro-2H-[1,4]oxazino[2,3,4-ij]quinoline-6-carboxamido)acetic acid]
18 | 2.6 nM | O=C(O)CNC(=O)c1c(O)c2ccc(Cl)c3c2n(c1=O)CC(c1ccc(C(F)(F)F)cc1)O3 (single isomer, unassigned) [Example 72, 2-(10-Chloro-7-hydroxy-5-oxo-2-(4-(trifluoromethyl)phenyl)-3,5-dihydro-2H-[1,4]oxazino[2,3,4-ij]quinoline-6-carboxamido)acetic acid]
19 | 10 nM | O=C(O)CNC(=O)c1c(O)c2cc(Cl)cc3c2n(c1=O)CC(c1ccc(C(F)(F)F)cc1)O3 (single isomer, unassigned) [Example 74, 2-(9-Chloro-7-hydroxy-5-oxo-2-(4-(trifluoromethyl)phenyl)-3,5-dihydro-2H-[1,4]oxazino[2,3,4-ij]quinoline-6-carboxamido)acetic acid]
20 | 2 nM | N#Cc1ccc(C2Cn3c(=O)c(C(=O)NCC(=O)O)c(O)c4ccc(C(F)(F)F)c(c43)O2)cc1 (single isomer, unassigned) [Example 77, 2-(2-(4-cyanophenyl)-7-hydroxy-5-oxo-10-(trifluoromethyl)-3,5-dihydro-2H-[1,4]oxazino[2,3,4-ij]quinoline-6-carboxamido)acetic acid]

same assay, conditions: FLAG-tagged full length PHD2; 0.2 μM 2-oxoglutarate, 0.5 μM HIF-1α peptide; 45 minutes at room temperature; read-out: MS m/z (M + 1)+ and human HIF-PHD2 IC50

Row | Compound | IC50
21 | O=C(O)CNC(=O)c1c(O)c2c(F)ccc3c2n(c1=O)CC(c1ccc(C(F)(F)F)cc1)O3 (single isomer, unassigned) [Example 69, 2-(8-fluoro-7-hydroxy-5-oxo-2-(4-(trifluoromethyl)phenyl)-3,5-dihydro-2H-[1,4]oxazino[2,3,4-ij]quinoline-6-carboxamido)acetic acid] | 3.3 nM
22 | O=C(O)CNC(=O)c1c(O)c2c(Cl)ccc3c2n(c1=O)CC(c1ccc(C(F)(F)F)cc1)O3 (single isomer, unassigned) [Example 71, 2-(8-chloro-7-hydroxy-5-oxo-2-(4-(trifluoromethyl)phenyl)-3,5-dihydro-2H-[1,4]oxazino[2,3,4-ij]quinoline-6-carboxamido)acetic acid] | 5.1 nM
23 | O=C(O)CNC(=O)c1c(O)c2ccc(Cl)c3c2n(c1=O)CC(c1ccc(C(F)(F)F)cc1)O3 (single isomer, unassigned) [Example 73, 2-(10-chloro-7-hydroxy-5-oxo-2-(4-(trifluoromethyl)phenyl)-3,5-dihydro-2H-[1,4]oxazino[2,3,4-ij]quinoline-6-carboxamido)acetic acid] | 2.8 nM
24 | O=C(O)CNC(=O)c1c(O)c2cc(Cl)cc3c2n(c1=O)CC(c1ccc(C(F)(F)F)cc1)O3 (single isomer, unassigned) [Example 75, 2-(9-chloro-7-hydroxy-5-oxo-2-(4-(trifluoromethyl)phenyl)-3,5-dihydro-2H-[1,4]oxazino[2,3,4-ij]quinoline-6-carboxamido)acetic acid] | 12 nM
25 | N#Cc1ccc(C2Cn3c(=O)c(C(=O)NCC(=O)O)c(O)c4ccc(C(F)(F)F)c(c43)O2)cc1 (single isomer, unassigned) [Example 78, 2-(2-(4-cyanophenyl)-7-hydroxy-10-(trifluoromethyl)-3,5-dihydro-2H-[1,4]oxazino[2,3,4-ij]quinoline-6-carboxamido)acetic acid] | 7.9 nM
